Here are results for one compound from article PMC4979471 (Cell Death Discovery, 2015).

Where two headings read alike, the source gives them in different places.

What all share (experiment): Kinase selectivity, P33-radiolabeled assay
Common to all, as to type: biochemical
Holding throughout (conditions): 10 μM ATP

Test [1] has as its target T1, TAOK3/JIK (Homo sapiens, UniProt Q9H2K8).
T1 construct: purchased Reaction Biology Corp
T1 sequence (Q9H2K8 1-898): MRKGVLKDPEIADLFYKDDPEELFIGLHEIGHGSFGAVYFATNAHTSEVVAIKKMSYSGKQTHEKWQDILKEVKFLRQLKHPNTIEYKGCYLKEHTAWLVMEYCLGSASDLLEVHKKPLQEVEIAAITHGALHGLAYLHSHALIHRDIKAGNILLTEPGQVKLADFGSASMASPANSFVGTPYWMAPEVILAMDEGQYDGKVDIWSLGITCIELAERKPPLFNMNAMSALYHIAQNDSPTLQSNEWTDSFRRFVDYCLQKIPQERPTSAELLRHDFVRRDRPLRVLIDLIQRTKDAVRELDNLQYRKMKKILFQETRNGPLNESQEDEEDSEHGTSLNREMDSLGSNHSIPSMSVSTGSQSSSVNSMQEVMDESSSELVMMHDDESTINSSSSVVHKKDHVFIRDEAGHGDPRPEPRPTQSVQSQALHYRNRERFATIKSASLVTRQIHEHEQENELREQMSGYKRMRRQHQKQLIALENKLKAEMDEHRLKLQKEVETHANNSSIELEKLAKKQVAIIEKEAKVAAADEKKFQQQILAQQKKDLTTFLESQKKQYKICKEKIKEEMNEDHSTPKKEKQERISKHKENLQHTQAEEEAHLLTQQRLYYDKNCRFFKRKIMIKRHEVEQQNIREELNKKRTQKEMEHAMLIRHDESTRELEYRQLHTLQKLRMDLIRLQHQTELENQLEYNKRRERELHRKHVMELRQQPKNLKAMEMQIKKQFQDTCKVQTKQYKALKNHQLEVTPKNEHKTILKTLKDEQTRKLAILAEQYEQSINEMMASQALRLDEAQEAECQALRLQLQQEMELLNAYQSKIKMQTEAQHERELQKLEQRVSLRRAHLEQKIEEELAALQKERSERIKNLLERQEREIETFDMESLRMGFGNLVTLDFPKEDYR
Summed up: (§1)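 Each enzyme was exposed to 10 μM compound, with duplicate measurements, in reactions containing 10 μM ATP. Numbers are remaining activity as a percent of the vehicle (DMSO) signal.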

Test [2] has as its target T2, EPHB2 (Homo sapiens, UniProt P29323).
T2 construct: purchased Reaction Biology Corp
T2 sequence (P29323 19-1055): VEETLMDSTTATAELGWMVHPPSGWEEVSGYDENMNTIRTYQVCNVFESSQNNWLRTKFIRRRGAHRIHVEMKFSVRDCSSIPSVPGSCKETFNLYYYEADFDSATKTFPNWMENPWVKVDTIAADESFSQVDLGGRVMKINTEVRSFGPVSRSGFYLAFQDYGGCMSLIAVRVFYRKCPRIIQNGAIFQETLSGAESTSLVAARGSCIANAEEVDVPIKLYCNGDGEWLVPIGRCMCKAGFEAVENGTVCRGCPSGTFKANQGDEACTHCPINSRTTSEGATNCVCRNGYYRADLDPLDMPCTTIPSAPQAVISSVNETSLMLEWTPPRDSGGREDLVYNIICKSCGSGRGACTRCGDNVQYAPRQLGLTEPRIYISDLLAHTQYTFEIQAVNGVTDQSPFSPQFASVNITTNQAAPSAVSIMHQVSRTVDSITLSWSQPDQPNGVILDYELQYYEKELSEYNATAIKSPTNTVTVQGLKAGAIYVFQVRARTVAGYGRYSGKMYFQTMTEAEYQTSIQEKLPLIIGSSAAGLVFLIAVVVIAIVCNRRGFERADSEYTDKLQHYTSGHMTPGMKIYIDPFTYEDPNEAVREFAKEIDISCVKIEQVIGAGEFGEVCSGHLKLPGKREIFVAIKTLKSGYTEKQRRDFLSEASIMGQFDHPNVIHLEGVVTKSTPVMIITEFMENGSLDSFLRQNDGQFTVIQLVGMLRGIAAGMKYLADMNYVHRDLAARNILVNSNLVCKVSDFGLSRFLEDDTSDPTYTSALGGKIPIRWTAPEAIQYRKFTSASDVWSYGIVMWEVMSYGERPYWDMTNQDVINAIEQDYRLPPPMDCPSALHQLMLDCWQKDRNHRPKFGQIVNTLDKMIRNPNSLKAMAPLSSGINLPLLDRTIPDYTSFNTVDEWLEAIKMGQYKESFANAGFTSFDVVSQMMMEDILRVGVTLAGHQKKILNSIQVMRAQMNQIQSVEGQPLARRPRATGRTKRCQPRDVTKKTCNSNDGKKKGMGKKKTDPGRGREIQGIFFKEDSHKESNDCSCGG
In short, it runs like this:
as §1

The target of test [3] is T3, WNK1 (Homo sapiens, UniProt Q9H4A3).
T3 construct: purchased Reaction Biology Corp
Summed up:
as §1

Test [4] deals with T4, ZAK/MLTK (Homo sapiens, UniProt Q9NYL2).
T4 construct: purchased Reaction Biology Corp
Summed up:
as §1

The target in test [5] is T5, CDK2/cyclin E (Homo sapiens, UniProt P24941).
T5 construct: purchased Reaction Biology Corp
In short, it runs like this:
as §1

Test [6] concerns the target T6, WEE1 (Homo sapiens, UniProt P30291).
T6 construct: purchased Reaction Biology Corp
Summed up: as §1

The mark [7] stands for this setting: read-out: % Enzyme Activity (relative to DMSO controls) AVG.
The mark [8] stands for this setting: read-out: % Enzyme Activity (relative to DMSO controls) Data 1.
Where [9] appears, read: read-out: % Enzyme Activity (relative to DMSO controls) Data 2.

T4 sequence (Q9NYL2 whole entry): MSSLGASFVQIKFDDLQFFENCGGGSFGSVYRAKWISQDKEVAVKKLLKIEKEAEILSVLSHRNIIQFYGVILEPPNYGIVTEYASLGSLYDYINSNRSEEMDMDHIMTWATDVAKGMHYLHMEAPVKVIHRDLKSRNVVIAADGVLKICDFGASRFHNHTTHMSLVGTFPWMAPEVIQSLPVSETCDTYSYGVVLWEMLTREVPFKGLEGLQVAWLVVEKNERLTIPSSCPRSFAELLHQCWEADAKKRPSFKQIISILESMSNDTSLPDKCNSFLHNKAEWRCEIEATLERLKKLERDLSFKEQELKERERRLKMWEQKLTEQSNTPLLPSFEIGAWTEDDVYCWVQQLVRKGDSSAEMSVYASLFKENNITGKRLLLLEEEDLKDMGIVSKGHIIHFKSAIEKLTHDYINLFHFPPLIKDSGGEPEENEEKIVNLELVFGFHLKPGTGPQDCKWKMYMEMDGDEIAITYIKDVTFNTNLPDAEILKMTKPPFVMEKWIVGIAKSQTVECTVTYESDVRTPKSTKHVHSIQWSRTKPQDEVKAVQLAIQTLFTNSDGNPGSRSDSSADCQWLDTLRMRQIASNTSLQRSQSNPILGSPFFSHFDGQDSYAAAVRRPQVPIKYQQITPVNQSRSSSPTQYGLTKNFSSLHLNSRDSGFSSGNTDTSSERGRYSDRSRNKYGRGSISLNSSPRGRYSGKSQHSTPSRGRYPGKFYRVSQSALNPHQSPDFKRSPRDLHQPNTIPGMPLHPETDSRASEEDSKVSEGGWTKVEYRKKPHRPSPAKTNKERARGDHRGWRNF
T6 sequence (P30291 whole entry): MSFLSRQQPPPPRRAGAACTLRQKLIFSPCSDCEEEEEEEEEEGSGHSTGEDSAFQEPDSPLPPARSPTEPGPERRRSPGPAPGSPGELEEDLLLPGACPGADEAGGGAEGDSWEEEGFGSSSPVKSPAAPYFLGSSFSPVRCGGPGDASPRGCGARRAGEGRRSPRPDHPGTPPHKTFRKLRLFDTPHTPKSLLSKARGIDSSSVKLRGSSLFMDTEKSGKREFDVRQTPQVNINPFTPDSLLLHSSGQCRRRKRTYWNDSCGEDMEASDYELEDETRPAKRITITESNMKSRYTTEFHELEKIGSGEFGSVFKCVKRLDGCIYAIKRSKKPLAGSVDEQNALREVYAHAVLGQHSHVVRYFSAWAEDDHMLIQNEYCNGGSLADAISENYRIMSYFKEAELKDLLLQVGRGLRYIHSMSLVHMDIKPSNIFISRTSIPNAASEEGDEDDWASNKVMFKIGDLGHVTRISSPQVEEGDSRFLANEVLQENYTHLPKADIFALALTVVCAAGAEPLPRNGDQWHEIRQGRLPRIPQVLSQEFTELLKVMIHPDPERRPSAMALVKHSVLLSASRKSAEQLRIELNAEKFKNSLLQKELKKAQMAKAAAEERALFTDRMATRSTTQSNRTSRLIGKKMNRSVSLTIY
T3 sequence (Q9H4A3 whole entry): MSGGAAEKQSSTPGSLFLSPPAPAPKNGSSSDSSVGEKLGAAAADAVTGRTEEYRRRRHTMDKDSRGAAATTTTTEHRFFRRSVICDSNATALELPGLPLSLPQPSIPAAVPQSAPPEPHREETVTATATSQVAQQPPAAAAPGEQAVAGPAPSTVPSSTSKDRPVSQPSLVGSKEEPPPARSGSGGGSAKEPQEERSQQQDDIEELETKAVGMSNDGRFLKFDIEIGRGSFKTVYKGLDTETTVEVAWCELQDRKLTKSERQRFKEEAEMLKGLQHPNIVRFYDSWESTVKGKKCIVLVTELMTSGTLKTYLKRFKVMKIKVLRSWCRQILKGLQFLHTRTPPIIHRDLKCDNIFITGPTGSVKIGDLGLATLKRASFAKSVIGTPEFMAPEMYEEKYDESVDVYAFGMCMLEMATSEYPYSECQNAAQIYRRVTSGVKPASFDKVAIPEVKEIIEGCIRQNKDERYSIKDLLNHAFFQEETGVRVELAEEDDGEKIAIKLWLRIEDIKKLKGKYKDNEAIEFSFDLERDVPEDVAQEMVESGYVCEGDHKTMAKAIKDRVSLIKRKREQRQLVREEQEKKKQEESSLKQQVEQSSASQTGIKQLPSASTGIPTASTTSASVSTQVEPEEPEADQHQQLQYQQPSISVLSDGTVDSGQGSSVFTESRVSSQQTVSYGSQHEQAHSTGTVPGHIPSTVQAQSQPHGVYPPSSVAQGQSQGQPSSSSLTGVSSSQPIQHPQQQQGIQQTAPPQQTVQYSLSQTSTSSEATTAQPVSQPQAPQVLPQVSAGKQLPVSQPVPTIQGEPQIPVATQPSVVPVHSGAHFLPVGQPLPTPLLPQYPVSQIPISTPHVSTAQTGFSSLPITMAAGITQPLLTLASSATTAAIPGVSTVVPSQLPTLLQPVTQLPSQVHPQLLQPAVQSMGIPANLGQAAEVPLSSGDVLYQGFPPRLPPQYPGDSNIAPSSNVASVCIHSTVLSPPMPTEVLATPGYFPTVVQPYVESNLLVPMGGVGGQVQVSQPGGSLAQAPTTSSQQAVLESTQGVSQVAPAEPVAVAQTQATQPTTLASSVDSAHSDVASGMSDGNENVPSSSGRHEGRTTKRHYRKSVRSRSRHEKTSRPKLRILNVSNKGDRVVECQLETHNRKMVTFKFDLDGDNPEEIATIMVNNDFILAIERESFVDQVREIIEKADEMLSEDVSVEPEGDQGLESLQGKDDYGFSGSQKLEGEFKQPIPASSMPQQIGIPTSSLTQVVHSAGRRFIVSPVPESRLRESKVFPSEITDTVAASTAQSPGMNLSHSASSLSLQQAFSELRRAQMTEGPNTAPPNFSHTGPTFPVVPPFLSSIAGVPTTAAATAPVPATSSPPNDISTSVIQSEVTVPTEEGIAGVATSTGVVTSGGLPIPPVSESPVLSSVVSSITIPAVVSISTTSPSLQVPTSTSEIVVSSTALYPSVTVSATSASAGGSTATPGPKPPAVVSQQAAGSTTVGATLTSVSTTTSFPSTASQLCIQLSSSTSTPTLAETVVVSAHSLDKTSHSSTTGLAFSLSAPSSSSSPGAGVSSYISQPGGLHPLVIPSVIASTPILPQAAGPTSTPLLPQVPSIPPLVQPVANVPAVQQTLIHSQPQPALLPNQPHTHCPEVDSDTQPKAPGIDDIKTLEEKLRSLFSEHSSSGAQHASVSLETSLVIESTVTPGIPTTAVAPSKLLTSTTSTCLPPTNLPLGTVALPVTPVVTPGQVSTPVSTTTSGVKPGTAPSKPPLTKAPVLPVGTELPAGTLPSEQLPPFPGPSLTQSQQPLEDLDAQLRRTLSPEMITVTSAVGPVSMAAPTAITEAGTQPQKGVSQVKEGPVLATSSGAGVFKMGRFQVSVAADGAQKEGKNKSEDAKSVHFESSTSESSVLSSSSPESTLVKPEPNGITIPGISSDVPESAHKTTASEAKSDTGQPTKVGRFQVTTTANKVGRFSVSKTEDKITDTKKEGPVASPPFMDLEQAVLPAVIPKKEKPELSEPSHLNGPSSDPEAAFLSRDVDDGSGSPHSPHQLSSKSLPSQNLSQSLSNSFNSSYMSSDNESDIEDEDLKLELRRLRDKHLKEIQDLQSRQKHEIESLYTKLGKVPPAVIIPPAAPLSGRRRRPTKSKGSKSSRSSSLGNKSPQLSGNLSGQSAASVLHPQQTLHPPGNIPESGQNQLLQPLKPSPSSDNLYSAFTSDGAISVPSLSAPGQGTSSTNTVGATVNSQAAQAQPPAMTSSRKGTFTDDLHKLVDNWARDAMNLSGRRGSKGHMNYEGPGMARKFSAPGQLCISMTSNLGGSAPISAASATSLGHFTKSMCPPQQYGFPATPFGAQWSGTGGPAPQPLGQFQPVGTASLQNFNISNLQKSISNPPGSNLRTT

`CC(C)(C)C(=O)N1N=CC[C@H]1c1ccccc1` [GSK′963]: the remaining activity at 10 µM in test [1] (setting [7]) was 98.2%; in test [1] (setting [8]), 99.2%; in test [1] (setting [9]), 97.3%; in test [2] (setting [7]) it was 105%; in test [2] (setting [8]), 108%; in test [2] (setting [9]) it was 102%. Moreover, the remaining activity at 10 µM in test [3] (setting [7]) is 81.7%; in test [3] (setting [8]) it was 78.3%; in test [3] (setting [9]), 85.1%; in test [4] (setting [7]) it was 105%; in test [4] (setting [8]), 106%; in test [4] (setting [9]), 104%. Besides, the remaining activity at 10 µM in test [5] (setting [7]) was found to be 95.2%; in test [5] (setting [8]) it was 95.7%; in test [5] (setting [9]), 94.7%; in test [6] (setting [7]), 85.6%; in test [6] (setting [8]), 81.9%; in test [6] (setting [9]) it was 89.2%.
